Data: publication PMC3101181, “Crystal Structures of T. b. rhodesiense Adenosine Kinase Complexed with Inhibitor and Activator: Implications for Catalysis and Hyperactivation” (PLoS Neglected Tropical Diseases, 2011)
“Also recorded” adds a separate entry of the source. Read-outs that look alike come from different tables or passages of the source.

Experiments:
TbrAK [1] = target: T1, TbrAK (Trypanosoma brucei rhodesiense, UniProt Q584S0); assay: Thermal stability assay (thermal unfolding by CD spectroscopy); format: binding; details: for Tm ± SD: TbrAK 13 µM, apo TbrAK 43.1±0.4, average of three experiments; for increase of TbrAK melting point when compound 1 was added: 50 µM
Procedure: Thermal unfolding of TbrAK was studied by CD spectroscopy as outlined elsewhere. […] TbrAK in a buffer containing 20 mM Hepes and 150 mM NaCl (pH 7.0) was kept constant at a final concentration of 0.5 mg/ml (13 µM). […] For evaluation of the CD spectra, the buffer spectrum was subtracted from the protein CD spectrum. All thermal unfolding curves were fitted to a two-state model that had been published recently. The mean of three independent experiments is reported.

TbrAK [2] = target: T1, TbrAK; assay: Isothermal titration calorimetry (ITC); format: binding
Procedure: Binding affinity constants for adenosine and ATP were determined using isothermal titration calorimetry (ITC). To this end, TbrAK was dialyzed into a buffer consisting of 20 mM Tris, 150 mM NaCl, and 5% glycerol (pH 7.5) and used at concentrations around 90 µM. The ligands were dissolved directly into the dialysis buffer to give a final concentration of around 2 mM. All solutions were filtered and thoroughly degassed before use. A typical titration experiment consisted of a first control injection of 1 µl followed by 50 to 60 injections, each of 5 µl (20 s duration), using a 4 min interval. Raw data were collected, corrected for ligand heats of dilution, integrated and fitted to the appropriate binding model using the Microcal Origin software supplied with the instrument. The measurements were performed in duplicate.

[3] = target: TbrAK (adenosine kinase of T. b. rhodesiense) (Trypanosoma brucei rhodesiense, UniProt Q584S0); assay: TbrAK activity assay (HPLC, ADP/ATP ratio); format: biochemical; details: n.e. = no effect; for EC50 / potency EC50 (TbrAK activation): compound range 1–2000 µM, average of three experiments, neither activator nor inhibitor; for EC50: read-out: potency EC50 (TbrAK activation); for efficacy increase (TbrAK activation): efficacy of TbrAK in absence of compound taken as reference
Procedure: The activation potential of a series of compound 1 derivatives (compounds 2–7) was measured using a recently developed HPLC method. The resulting ADP/ATP ratios were calculated and used as a measure of activity. For comparative reasons the activity recorded in absence of compound was set to 100%. The mean of three independent measurements is reported.

[4] = tested on: Trypanosoma brucei rhodesiense; parameters: method as in PMID 19707572, PMID 17949068; details: read-out: IC50 towards Trypanosoma brucei rhodesiense; cited from earlier work
TbrAK [5] = target: T1, TbrAK; details: ITC; cited from earlier work
[6] = parameters: method as in PMID 19707572, PMID 17949068; details: cited from earlier work
[7] = AP5A, adenosine, ATP at 500 µM, compound 1 at 50 µM

Chain of TbrAK (adenosine kinase of T. b. rhodesiense) (Q584S0 entry or part of it): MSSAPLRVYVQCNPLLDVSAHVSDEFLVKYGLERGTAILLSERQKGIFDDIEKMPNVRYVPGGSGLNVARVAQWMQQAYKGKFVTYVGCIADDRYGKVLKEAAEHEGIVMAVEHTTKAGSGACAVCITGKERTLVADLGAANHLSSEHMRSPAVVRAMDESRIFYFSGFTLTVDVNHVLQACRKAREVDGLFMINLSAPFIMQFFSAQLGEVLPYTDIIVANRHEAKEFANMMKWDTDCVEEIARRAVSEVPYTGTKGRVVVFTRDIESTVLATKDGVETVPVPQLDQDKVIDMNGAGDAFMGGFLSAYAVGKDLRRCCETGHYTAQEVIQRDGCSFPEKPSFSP
T1 sequence (Q584S0 entry or part of it): as above

SMILES | Tm ± SD (TbrAK [1]; [7]) [°C] | EC50 [3] [µM] | efficacy increase (TbrAK activation) [3] | also measured
Nc1ncnc2c1ncn2[C@@H]1O[C@H](CO)[C@@H](O)[C@H]1O [adenosine] | 50.7±0.2 |  |  | Kd (TbrAK [2]): 1.3 ± 0.3 µM; n (molar ratio, single site) (TbrAK [2]; in presence of compound 1 (150 µM)): 0.9±0.1; ΔHbind, single binding site (TbrAK [2]; in presence of compound 1 (150 µM), single-site binding model): -15.5 ± 0.2 kcal/mol; Kd (TbrAK [2]; read-out: KD, low affinity binding site, two-sites non-interacting binding model, mean of two experiments): 27.6 ± 1.1 µM; n1 (molar ratio, high affinity site) (TbrAK [2]; two-sites model): 0.9±0.1; n2 (molar ratio, low affinity site) (TbrAK [2]; two-sites model): 0.8±0.1
Clc1ccc(-c2cc(N3CCOCC3)[nH]n2)cc1 [compound 4, 4-[5-(4-chlorophenyl)-2H-pyrazol-3-yl]morpholine] |  | 135 | 2.0 fold | 
Nc1ncnc2c1ncn2[C@@H]1O[C@H](COP(=O)(O)OP(=O)(O)OP(=O)(O)O)[C@@H](O)[C@H]1O [ATP, adenosine triphosphate] | 42.8±0.1 |  |  | 
c1ccc(Oc2ccc(-c3cc(CN4CCOCC4)[nH]n3)cc2)cc1 [compound 5, 4-[5-(4-phenoxyphenyl)-2H-pyrazol-3-ylmethyl]morpholine] |  | 195 | 1.5 fold | 
c1ccc(Oc2ccc(-c3cc(C4CCOCC4)[nH]n3)cc2)cc1 [compound 2, 3-(4-phenoxyphenyl)-5-(tetrahydropyran-4-yl)-1H-pyrazole] |  | 25.4 | 2.0 fold | 
Nc1ncnc2c1ncn2[C@@H]1O[C@H](COP(=O)(O)OP(=O)(O)OP(=O)(O)OP(=O)(O)OP(=O)(O)OC[C@H]2O[C@@H](n3cnc4c(N)ncnc43)[C@H](O)[C@@H]2O)[C@@H](O)[C@H]1O [AP5A, P^1,P^5-di(adenosine-5′)-pentaphosphate] | 50.5±0.2 |  |  | Δ Tm (TbrAK [1]; shift versus apo TbrAK (43.1°C), AP5A, adenosine, ATP at 500 µM, compound 1 at 50 µM): 7.4 °C
c1ccc(Oc2ccc(-c3cc(N4CCOCC4)[nH]n3)cc2)cc1 [compound 1, 4-[5-(4-phenoxyphenyl)-2H-pyrazol-3-yl]morpholine] | 47.9±0.1 |  | 3.5 fold | increase of TbrAK melting point when compound 1 was added (TbrAK [1]; in presence of adenosine): 0.4 °C; increase of TbrAK melting point when compound 1 was added (TbrAK [1]; in presence of both adenosine and ATP): 0.7 °C; IC50 [4]: 1000 nM; number of binding sites on TbrAK (TbrAK [5]): two binding sites; cytotoxicity [6]: low cytotoxicity
c1ccc(Oc2ccc(-c3cc(N4CCOCC4)on3)cc2)cc1 [compound 6, 4-[3-(4-phenoxyphenyl)isoxazol-5-yl]morpholine] |  |  | loses all activation capacity; also recorded: n.e. ^c | potency EC50 (TbrAK activation) [3]: n.e. ^c
O=[N+]([O-])c1ccc(Oc2ccc(-c3cc(N4CCOCC4)[nH]n3)cc2)cc1 [compound 7, 4-{5-[4-(4-nitrophenoxy)phenyl]-2H-pyrazol-3-yl}morpholine] |  |  | loses all activation capacity; also recorded: n.e. ^c | potency EC50 (TbrAK activation) [3]: n.e.
CCc1ccc(-c2cc(C3CCOCC3)[nH]n2)cc1 [compound 3, 3-(4-ethylphenyl)-5-(tetrahydropyran-4-yl)-1H-pyrazole] |  | 168 | 2.5 fold | 
